Test system: JFH1-based recombinants of genotypes 1a, 1b, 2a, 2b, and 6a
Format: cell-based, hepatitis C virus
Conditions: 500 IU/mL interferon-α2b, 20 μM ribavirin or 50 μM amantadine; for decrease in supernatant HCV RNA titers / decrease in the number of infected cells: 72 hrs, Huh7.5 cultures infected with genotype 1a/1b, 2a/2b and 6a recombinants

With NC12CC3CC(CC(C3)C1)C2 [amantadine] the “antiviral effect of treatment (infected cells and supernatant HCV RNA titers)” value was “no apparent effect”, the “decrease in supernatant HCV RNA titers” value was “did not decrease” and the “decrease in the number of infected cells” value was “did not decrease”.

With NC(=O)c1ncn([C@@H]2O[C@H](CO)[C@@H](O)[C@H]2O)n1 [ribavirin] the “antiviral effect of treatment (infected cells and supernatant HCV RNA titers)” value was “no apparent effect”, the “decrease in supernatant HCV RNA titers” value was “did not decrease” and the “decrease in the number of infected cells” value was “did not decrease”.

— patent US8569472B2, “Efficient cell culture system for hepatitis C virus genotype 6A” (priority 2007, dated 2013)
